Starred links: 1 amine or outer side, 2 acyl side, 3 side chain; linkers in the order of their positions; H or OH if unused. Non-standard residues stand in square brackets, D forms with d. Residues, ends and D or L forms follow the SMILES beside them. Groups on a side chain read outwards from the residue. *: point of attachment. C18 diacid = O=C(O)CCCCCCCCCCCCCCCCC(=O)*; C17 diacid = O=C(O)CCCCCCCCCCCCCCCC(=O)*; γGlu = O=C(O)[C@H](CCC(=O)[*:2])N[*:1]; NMeY = CN[C@@H](Cc1ccc(O)cc1)C(=O)O; AEEA = NCCOCCOCC(=O)O; Aib = CC(C)(N)C(=O)O

This series can be described thus: physchem. The gist of the method: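 3 mg of peptide treated with 100 μL portions of 200 mM phosphate buffer pH 7.4, sonicating/vortexing up to 1 min, with further buffer added until fully dissolved. Solubility then quantified by HPLC.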

By solubility is commonly meant the concentration that dissolves in the medium under given conditions. A low value points to a poorly soluble substance. For `CC[C@H](C)[C@H](NC(=O)[C@H](CO)NC(=O)[C@H](Cc1ccc(O)cc1)NC(=O)[C@H](CC(=O)O)NC(=O)[C@H](CO)NC(=O)[C@@H](NC(=O)[C@H](Cc1ccccc1)NC(=O)[C@@H](NC(=O)CNC(=O)[C@H](CCC(=O)O)NC(=O)C(C)(C)NC(=O)[C@H](Cc1ccc(O)cc1)NC)[C@@H](C)O)[C@@H](C)CC)C(=O)N[C@@H](C)C(=O)N[C@@H](CC(C)C)C(=O)N[C@@H](CC(=O)O)C(=O)N[C@@H](CCCNC(=N)N)C(=O)NC(C)(C)C(=O)N[C@@H](C)C(=O)N[C@@H](CCC(N)=O)C(=O)NC(C)(C)C(=O)N[C@@H](CCCCNC(=O)COCCOCCNC(=O)COCCOCCNC(=O)CC[C@H](NC(=O)CC[C@H](NC(=O)CCCCCCCCCCCCCCCC(=O)O)C(=O)O)C(=O)O)C(=O)N[C@@H](Cc1ccccc1)C(=O)N[C@H](C(=O)N[C@@H](CC(N)=O)C(=O)N[C@@H](Cc1c[nH]c2ccccc12)C(=O)N[C@@H](CC(C)C)C(=O)N[C@@H](CC(C)C)C(=O)N[C@@H](C)C(=O)N[C@@H](CCC(N)=O)C(=O)N[C@@H](CCCNC(=N)N)C(=O)NCC(=O)NCC(=O)NCC(=O)NCC(=O)N[C@@H](CO)C(N)=O)C(C)C` [Compound 30] (H-[NMeY][Aib]EGTFISDYSIALDR[Aib]AQ[Aib]K([AEEA-AEEA-γGlu-γGlu-C17 diacid])FVNWLLAQRGGGGS-NH2), the solubility by setting is: (pH 7.4) no less than 15 mg/mL; (pH 7.4, aqueous buffer) no less than 30 mg/mL. For the molecule `CC[C@H](C)[C@H](NC(=O)[C@H](CO)NC(=O)[C@H](Cc1ccc(O)cc1)NC(=O)[C@H](CC(=O)O)NC(=O)[C@H](CO)NC(=O)[C@@H](NC(=O)[C@H](Cc1ccccc1)NC(=O)[C@@H](NC(=O)CNC(=O)[C@H](CCC(=O)O)NC(=O)C(C)(C)NC(=O)[C@H](Cc1ccc(O)cc1)NC)[C@@H](C)O)[C@@H](C)CC)C(=O)N[C@@H](C)C(=O)N[C@@H](CCCCNC(=O)CNC(=O)CNC(=O)CNC(=O)CNC(=O)CNC(=O)CC[C@H](NC(=O)CCCCCCCCCCCCCCCCC(=O)O)C(=O)O)C(=O)N[C@@H](CC(=O)O)C(=O)N[C@@H](CCCNC(=N)N)C(=O)NC(C)(C)C(=O)N[C@@H](C)C(=O)N[C@@H](CCC(N)=O)C(=O)NC(C)(C)C(=O)N[C@@H](CC(=O)O)C(=O)N[C@@H](Cc1ccccc1)C(=O)N[C@H](C(=O)N[C@@H](CC(N)=O)C(=O)N[C@@H](Cc1c[nH]c2ccccc12)C(=O)N[C@@H](CC(C)C)C(=O)N[C@@H](CC(C)C)C(=O)N[C@@H](C)C(=O)N[C@@H](CCC(N)=O)C(=O)N[C@@H](CCCNC(=N)N)C(=O)N1CCC[C@H]1C(=O)N[C@@H](CO)C(=O)N[C@@H](CO)C(=O)NCC(=O)N[C@@H](C)C(=O)N1CCC[C@H]1C(=O)N1CCC[C@H]1C(=O)N1CCC[C@H]1C(=O)N[C@@H](CO)C(N)=O)C(C)C` [Compound 24], the solubility by setting is: (pH 7.4, aqueous buffer, pH 7.4 Phosphate Buffer - Solubility, 200 mM Phosphate buffer pH 7.4) no less than 30 mg/mL; (pH 7.4, solubility in phosphate buffer at pH 7.4, 200 mM phosphate buffer pH 7.4) no less than 15 mg/mL.

In turn, `CC[C@H](C)[C@H](NC(=O)[C@H](Cc1ccccc1)NC(=O)[C@@H](NC(=O)CNC(=O)[C@H](CCC(=O)O)NC(=O)C(C)(C)NC(=O)[C@@H](N)Cc1ccc(O)cc1)[C@@H](C)O)C(=O)N[C@@H](CO)C(=O)N[C@@H](CC(=O)O)C(=O)N[C@@H](Cc1ccc(O)cc1)C(=O)N[C@@H](CO)C(=O)N[C@H](C(=O)NC(C)(C)C(=O)N[C@@H](CC(C)C)C(=O)N[C@@H](CC(=O)O)C(=O)N[C@@H](CCCCN)C(=O)N[C@@H](C)C(=O)N[C@@H](CCCCNC(=O)COCCOCCNC(=O)COCCOCCNC(=O)CC[C@H](NC(=O)CCCCCCCCCCCCCCCCC(=O)O)C(=O)O)C(=O)N[C@@H](CCC(N)=O)C(=O)N[C@@H](CCC(N)=O)C(=O)N[C@@H](CC(=O)O)C(=O)N[C@@H](Cc1ccccc1)C(=O)N[C@H](C(=O)N[C@@H](CC(N)=O)C(=O)N[C@@H](Cc1c[nH]c2ccccc12)C(=O)N[C@@H](CC(C)C)C(=O)N[C@@H](CC(C)C)C(=O)N[C@@H](C)C(=O)N[C@@H](CCC(N)=O)C(=O)N[C@@H](CCCNC(=N)N)C(=O)NCC(=O)O)C(C)C)[C@@H](C)CC` [Compound 170] (H-Y[Aib]EGTFISDYSI[Aib]LDKAK([AEEA-AEEA-γGlu-C18 diacid])QQDFVNWLLAQRG-OH) showed a solubility (pH 7.4) of no less than 15 mg/mL and a solubility (pH 7.4, aqueous buffer) of no less than 30 mg/mL. `CC[C@H](C)[C@H](NC(=O)[C@H](CCCCN)NC(=O)[C@H](CC(=O)O)NC(=O)[C@H](CC(C)C)NC(=O)C(C)(C)NC(=O)[C@@H](NC(=O)[C@H](CO)NC(=O)[C@H](Cc1ccc(O)cc1)NC(=O)[C@H](CC(=O)O)NC(=O)[C@H](CO)NC(=O)[C@@H](NC(=O)[C@H](Cc1ccccc1)NC(=O)[C@@H](NC(=O)CNC(=O)[C@H](CCC(=O)O)NC(=O)C(C)(C)NC(=O)[C@@H](N)Cc1ccc(O)cc1)[C@@H](C)O)[C@@H](C)CC)[C@@H](C)CC)C(=O)N[C@@H](C)C(=O)N[C@@H](CCC(N)=O)C(=O)N[C@@H](CCC(N)=O)C(=O)N[C@@H](CCCCNC(=O)COCCOCCNC(=O)COCCOCCNC(=O)CC[C@H](NC(=O)CC[C@H](NC(=O)CCCCCCCCCCCCCCCC(=O)O)C(=O)O)C(=O)O)C(=O)N[C@@H](Cc1ccccc1)C(=O)N[C@H](C(=O)N[C@@H](CCC(=O)O)C(=O)N[C@@H](Cc1c[nH]c2ccccc12)C(=O)N[C@@H](CC(C)C)C(=O)N[C@@H](CC(C)C)C(=O)N[C@@H](C)C(=O)N[C@@H](CCC(N)=O)C(=O)N[C@@H](CCCNC(=N)N)C(=O)NCC(=O)O)C(C)C` [Compound 129] (H-Y[Aib]EGTFISDYSI[Aib]LDKIAQQK([AEEA-AEEA-γGlu-γGlu-C17 diacid])FVEWLLAQRG-OH): the solubility is, setting by setting: (pH 7.4) no less than 15 mg/mL; (pH 7.4, aqueous buffer) no less than 30 mg/mL. Turning to `CC[C@H](C)[C@H](NC(=O)[C@H](CO)NC(=O)[C@H](Cc1ccc(O)cc1)NC(=O)[C@H](CC(=O)O)NC(=O)[C@H](CO)NC(=O)[C@@H](NC(=O)[C@H](Cc1ccccc1)NC(=O)[C@@H](NC(=O)CNC(=O)[C@H](CCC(=O)O)NC(=O)C(C)(C)NC(=O)[C@H](Cc1ccc(O)cc1)NC)[C@@H](C)O)[C@@H](C)CC)C(=O)N[C@@H](C)C(=O)N[C@@H](CCCCNC(=O)CNC(=O)CNC(=O)CNC(=O)CNC(=O)CNC(=O)CCCCCCCCCCCCCCCCC(=O)O)C(=O)N[C@@H](CC(=O)O)C(=O)N[C@@H](CCCNC(=N)N)C(=O)NC(C)(C)C(=O)N[C@@H](C)C(=O)N[C@@H](CCC(N)=O)C(=O)NC(C)(C)C(=O)N[C@@H](CC(N)=O)C(=O)N[C@@H](Cc1ccccc1)C(=O)N[C@H](C(=O)N[C@@H](CC(N)=O)C(=O)N[C@@H](Cc1c[nH]c2ccccc12)C(=O)N[C@@H](CC(C)C)C(=O)N[C@@H](CC(C)C)C(=O)N[C@@H](C)C(=O)N[C@@H](CCC(N)=O)C(=O)N[C@@H](CCCNC(=N)N)C(=O)O)C(C)C` [Compound 251], the solubility (pH 7.4, aqueous buffer) is no less than 7 mg/mL.

The molecule `CC[C@H](C)[C@H](NC(=O)[C@H](CO)NC(=O)[C@H](Cc1ccc(O)cc1)NC(=O)[C@H](CC(=O)O)NC(=O)[C@H](CO)NC(=O)[C@@H](NC(=O)[C@H](Cc1ccccc1)NC(=O)[C@@H](NC(=O)CNC(=O)[C@H](CCC(=O)O)NC(=O)C(C)(C)NC(=O)[C@H](Cc1ccc(O)cc1)NC(C)=O)[C@@H](C)O)[C@@H](C)CC)C(=O)N[C@@H](C)C(=O)N[C@@H](CC(C)C)C(=O)N[C@@H](CC(=O)O)C(=O)N[C@@H](CCCNC(=N)N)C(=O)N[C@H](C(=O)N[C@@H](Cc1c[nH]cn1)C(=O)N[C@@H](CCC(N)=O)C(=O)N[C@@H](CCC(N)=O)C(=O)N[C@@H](CC(N)=O)C(=O)N[C@@H](Cc1ccccc1)C(=O)N[C@H](C(=O)N[C@@H](CC(N)=O)C(=O)N[C@@H](Cc1c[nH]c2ccccc12)C(=O)N[C@@H](CC(C)C)C(=O)N[C@@H](CC(C)C)C(=O)N[C@@H](C)C(=O)N[C@@H](CCC(N)=O)C(=O)N[C@@H](CCCCNC(=O)COCCOCCNC(=O)COCCOCCNC(=O)CC[C@H](NC(=O)CCCCCCCCCCCCCCCCC(=O)O)C(=O)O)C(=O)O)C(C)C)[C@@H](C)CC` [Compound 244] (Ac-Y[Aib]EGTFISDYSIALDRIHQQNFVNWLLAQK([AEEA-AEEA-γGlu-C18 diacid])-OH; C-terminus assumed) showed a solubility (pH 7.4, aqueous buffer) of no less than 9.4 mg/mL.

As for `CC[C@H](C)[C@H](NC(=O)[C@H](CO)NC(=O)[C@H](Cc1ccc(O)cc1)NC(=O)[C@H](CC(=O)O)NC(=O)[C@H](CO)NC(=O)[C@@H](NC(=O)[C@H](Cc1ccccc1)NC(=O)[C@@H](NC(=O)CNC(=O)[C@H](CCC(=O)O)NC(=O)C(C)(C)NC(=O)[C@H](Cc1ccc(O)cc1)NC)[C@@H](C)O)[C@@H](C)CC)C(=O)N[C@@H](C)C(=O)N[C@@H](CC(C)C)C(=O)N[C@@H](CC(=O)O)C(=O)N[C@@H](CCCNC(=N)N)C(=O)N[C@H](C(=O)N[C@@H](Cc1c[nH]cn1)C(=O)N[C@@H](CCC(N)=O)C(=O)N[C@@H](CCC(N)=O)C(=O)N[C@@H](CC(N)=O)C(=O)N[C@@H](Cc1ccccc1)C(=O)N[C@H](C(=O)N[C@@H](CC(N)=O)C(=O)N[C@@H](Cc1c[nH]c2ccccc12)C(=O)N[C@@H](CC(C)C)C(=O)N[C@@H](CC(C)C)C(=O)N[C@@H](C)C(=O)N[C@@H](CCC(N)=O)C(=O)N[C@@H](CCCCNC(=O)COCCOCCNC(=O)COCCOCCNC(=O)CC[C@H](NC(=O)CCCCCCCCCCCCCCCCC(=O)O)C(=O)O)C(N)=O)C(C)C)[C@@H](C)CC` [Compound 5] (H-[NMeY][Aib]EGTFISDYSIALDRIHQQNFVNWLLAQK([AEEA-AEEA-γGlu-C18 diacid])-NH2), the solubility was no less than 15 mg/mL (pH 7.4) and no less than 27 mg/mL (pH 7.4, aqueous buffer).

`CC[C@H](C)[C@H](NC(=O)[C@H](CO)NC(=O)[C@H](Cc1ccc(O)cc1)NC(=O)[C@H](CC(=O)O)NC(=O)[C@H](CO)NC(=O)[C@@H](NC(=O)[C@H](Cc1ccccc1)NC(=O)[C@@H](NC(=O)CNC(=O)[C@H](CCC(=O)O)NC(=O)C(C)(C)NC(=O)[C@@H](N)Cc1ccc(O)cc1)[C@@H](C)O)[C@@H](C)CC)C(=O)N[C@@H](C)C(=O)NC(C)(C)C(=O)N[C@@H](CC(=O)O)C(=O)N[C@@H](CCCCN)C(=O)N[C@@H](C)C(=O)N[C@@H](C)C(=O)N[C@@H](CCC(N)=O)C(=O)N[C@@H](C)C(=O)N[C@@H](CCCCNC(=O)COCCOCCNC(=O)COCCOCCNC(=O)CC[C@H](NC(=O)CC[C@H](NC(=O)CCCCCCCCCCCCCCCCC(=O)O)C(=O)O)C(=O)O)C(=O)N[C@@H](Cc1ccccc1)C(=O)N[C@H](C(=O)N[C@@H](CCC(=O)O)C(=O)N[C@@H](Cc1c[nH]c2ccccc12)C(=O)N[C@@H](CC(C)C)C(=O)N[C@@H](CC(C)C)C(=O)N[C@@H](C)C(=O)N[C@@H](CCC(N)=O)C(=O)N[C@@H](CCCNC(=N)N)C(=O)NCC(=O)O)C(C)C` [Compound 158] (H-Y[Aib]EGTFISDYSIA[Aib]DKAAQAK([AEEA-AEEA-γGlu-γGlu-C18 diacid])FVEWLLAQRG-OH): the solubility runs as follows: (pH 7.4) no less than 15 mg/mL; (pH 7.4, aqueous buffer) no less than 30 mg/mL.

Source of the values: patent US20230143604A1, “QW DOSING OF GIP RECEPTOR AGONIST PEPTIDE COMPOUNDS AND USES THEREOF” (TAKEDA PHARMACEUTICAL COMPANY LIMITED, priority 2020, published 2023).
